# Source: the kinase profiling compilation of Christmann-Franck et al. (2016)
# Key:
# Assay in all cases: KINOMEscan competition binding
# [1] = molecular target: ABL1 (human), P00519 [E255K]
# [2] = molecular target: ABL1 (human), P00519 [H396P]
# [3] = molecular target: ABL1 (human), P00519 [M351T]
# [4] = molecular target: ABL1 (human), P00519 [T315I]
# [5] = molecular target: ABL1 (human), P00519 [Y253F]
# ABL2 (human) = ABL2 (human) (UniProt P42684)
# BTK (human) = BTK (human) (UniProt Q06187)
# CAMK2A (human) = CAMK2A (human) (UniProt Q9UQM7)
# CAMK2D (human) = CAMK2D (human) (UniProt Q13557)
# CAMKK1 (human) = CAMKK1 (human) (UniProt Q8N5S9)
# CLK3 (human) = CLK3 (human) (UniProt P49761)
# CSNK1G1 (human) = CSNK1G1 (human) (UniProt Q9HCP0)
# EPHA5 (human) = EPHA5 (human) (UniProt P54756)
# EPHA6 (human) = EPHA6 (human) (UniProt Q9UF33)
# EPHB1 (human) = EPHB1 (human) (UniProt P54762)
# ERBB2 (human) = ERBB2 (human) (UniProt P04626)
# FER (human) = FER (human) (UniProt P16591)
# FGFR1 (human) = FGFR1 (human) (UniProt P11362)
# FGFR2 (human) = FGFR2 (human) (UniProt P21802)
# FGFR3 (human) = FGFR3 (human) (UniProt P22607)
# FGR (human) = FGR (human) (UniProt P09769)
# FLT3 (human) = FLT3 (human) (UniProt P36888)
# FYN (human) = FYN (human) (UniProt P06241)
# HCK (human) = HCK (human) (UniProt P08631)
# [6] = molecular target: JAK2 JH2 pseudokinase (human) (UniProt O60674)
# KDR (human) = KDR (human) (UniProt P35968)
# LCK (human) = LCK (human) (UniProt P06239)
# LIMK1 (human) = LIMK1 (human) (UniProt P53667)
# MAP3K5 (human) = MAP3K5 (human) (UniProt Q99683)
# NEK6 (human) = NEK6 (human) (UniProt Q9HC98)
# NEK9 (human) = NEK9 (human) (UniProt Q8TD19)
# PDGFRB (human) = PDGFRB (human) (UniProt P09619)
# PHKG1 (human) = PHKG1 (human) (UniProt Q16816)
# PKMYT1 (human) = PKMYT1 (human) (UniProt Q99640)
# PRKAA1 (human) = PRKAA1 (human) (UniProt Q13131)
# PRKACA (human) = PRKACA (human) (UniProt P17612)
# PTK2 (human) = PTK2 (human) (UniProt Q05397)
# RPS6KA3 KD1 (human) = RPS6KA3 KD1 (human) (UniProt P51812)
# SRC (human) = SRC (human) (UniProt P12931)
# STK17B (human) = STK17B (human) (UniProt O94768)
# TEK (human) = TEK (human) (UniProt Q02763)
# TNK2 (human) = TNK2 (human) (UniProt Q07912)
# Chain of FGFR3 (human) (P22607 whole entry, looked up): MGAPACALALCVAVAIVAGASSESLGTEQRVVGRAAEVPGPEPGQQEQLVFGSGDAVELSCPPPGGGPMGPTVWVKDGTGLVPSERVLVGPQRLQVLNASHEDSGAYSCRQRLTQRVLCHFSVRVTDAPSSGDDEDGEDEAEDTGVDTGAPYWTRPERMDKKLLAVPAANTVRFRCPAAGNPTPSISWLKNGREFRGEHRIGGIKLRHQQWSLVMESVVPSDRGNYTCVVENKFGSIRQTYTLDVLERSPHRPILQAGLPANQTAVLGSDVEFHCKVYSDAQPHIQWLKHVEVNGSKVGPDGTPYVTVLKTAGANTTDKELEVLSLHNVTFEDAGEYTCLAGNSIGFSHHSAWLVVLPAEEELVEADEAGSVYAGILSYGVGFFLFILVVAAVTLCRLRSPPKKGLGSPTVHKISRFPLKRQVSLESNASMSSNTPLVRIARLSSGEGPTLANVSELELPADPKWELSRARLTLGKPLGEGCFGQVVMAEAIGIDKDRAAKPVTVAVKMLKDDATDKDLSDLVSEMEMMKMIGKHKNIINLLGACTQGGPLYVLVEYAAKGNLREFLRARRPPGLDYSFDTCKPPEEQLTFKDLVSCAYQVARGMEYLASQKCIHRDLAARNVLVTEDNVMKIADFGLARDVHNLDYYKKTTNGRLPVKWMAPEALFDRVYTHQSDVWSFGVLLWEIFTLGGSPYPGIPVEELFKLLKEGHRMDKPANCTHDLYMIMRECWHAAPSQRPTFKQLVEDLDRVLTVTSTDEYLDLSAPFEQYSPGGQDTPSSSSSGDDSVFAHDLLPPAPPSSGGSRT
# Chain of FGR (human) (P09769 whole entry, looked up): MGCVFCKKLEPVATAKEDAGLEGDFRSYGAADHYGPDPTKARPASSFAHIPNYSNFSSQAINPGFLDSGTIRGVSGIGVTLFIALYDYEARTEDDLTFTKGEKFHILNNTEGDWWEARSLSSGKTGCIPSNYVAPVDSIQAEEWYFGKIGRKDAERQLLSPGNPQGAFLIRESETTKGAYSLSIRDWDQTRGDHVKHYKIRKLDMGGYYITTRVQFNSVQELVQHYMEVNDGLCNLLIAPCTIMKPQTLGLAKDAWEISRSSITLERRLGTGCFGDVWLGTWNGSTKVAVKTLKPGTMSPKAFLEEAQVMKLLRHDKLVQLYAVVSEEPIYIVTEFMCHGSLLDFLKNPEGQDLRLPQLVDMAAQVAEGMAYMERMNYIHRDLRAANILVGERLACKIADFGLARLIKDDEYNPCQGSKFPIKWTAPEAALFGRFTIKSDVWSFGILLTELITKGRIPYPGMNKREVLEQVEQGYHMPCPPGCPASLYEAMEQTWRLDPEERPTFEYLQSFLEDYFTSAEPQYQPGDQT
# Chain of PRKAA1 (human) (Q13131 whole entry, looked up): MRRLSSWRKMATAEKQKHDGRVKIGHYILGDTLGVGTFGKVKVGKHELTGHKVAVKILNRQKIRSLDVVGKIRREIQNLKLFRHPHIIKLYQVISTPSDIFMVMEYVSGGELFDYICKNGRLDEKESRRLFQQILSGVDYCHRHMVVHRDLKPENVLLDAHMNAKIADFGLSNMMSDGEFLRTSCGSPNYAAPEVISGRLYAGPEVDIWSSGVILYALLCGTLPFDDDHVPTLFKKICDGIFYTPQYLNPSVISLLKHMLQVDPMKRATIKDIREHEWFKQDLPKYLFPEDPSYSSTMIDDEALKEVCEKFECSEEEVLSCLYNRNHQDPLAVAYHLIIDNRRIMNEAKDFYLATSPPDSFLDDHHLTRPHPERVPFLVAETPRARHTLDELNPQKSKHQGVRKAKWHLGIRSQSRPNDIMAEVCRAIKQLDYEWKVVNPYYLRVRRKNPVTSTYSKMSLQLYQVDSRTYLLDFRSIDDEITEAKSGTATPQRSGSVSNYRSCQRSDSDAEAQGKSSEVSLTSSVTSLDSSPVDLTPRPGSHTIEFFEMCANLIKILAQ
# Chain of PTK2 (human) (Q05397 whole entry, looked up): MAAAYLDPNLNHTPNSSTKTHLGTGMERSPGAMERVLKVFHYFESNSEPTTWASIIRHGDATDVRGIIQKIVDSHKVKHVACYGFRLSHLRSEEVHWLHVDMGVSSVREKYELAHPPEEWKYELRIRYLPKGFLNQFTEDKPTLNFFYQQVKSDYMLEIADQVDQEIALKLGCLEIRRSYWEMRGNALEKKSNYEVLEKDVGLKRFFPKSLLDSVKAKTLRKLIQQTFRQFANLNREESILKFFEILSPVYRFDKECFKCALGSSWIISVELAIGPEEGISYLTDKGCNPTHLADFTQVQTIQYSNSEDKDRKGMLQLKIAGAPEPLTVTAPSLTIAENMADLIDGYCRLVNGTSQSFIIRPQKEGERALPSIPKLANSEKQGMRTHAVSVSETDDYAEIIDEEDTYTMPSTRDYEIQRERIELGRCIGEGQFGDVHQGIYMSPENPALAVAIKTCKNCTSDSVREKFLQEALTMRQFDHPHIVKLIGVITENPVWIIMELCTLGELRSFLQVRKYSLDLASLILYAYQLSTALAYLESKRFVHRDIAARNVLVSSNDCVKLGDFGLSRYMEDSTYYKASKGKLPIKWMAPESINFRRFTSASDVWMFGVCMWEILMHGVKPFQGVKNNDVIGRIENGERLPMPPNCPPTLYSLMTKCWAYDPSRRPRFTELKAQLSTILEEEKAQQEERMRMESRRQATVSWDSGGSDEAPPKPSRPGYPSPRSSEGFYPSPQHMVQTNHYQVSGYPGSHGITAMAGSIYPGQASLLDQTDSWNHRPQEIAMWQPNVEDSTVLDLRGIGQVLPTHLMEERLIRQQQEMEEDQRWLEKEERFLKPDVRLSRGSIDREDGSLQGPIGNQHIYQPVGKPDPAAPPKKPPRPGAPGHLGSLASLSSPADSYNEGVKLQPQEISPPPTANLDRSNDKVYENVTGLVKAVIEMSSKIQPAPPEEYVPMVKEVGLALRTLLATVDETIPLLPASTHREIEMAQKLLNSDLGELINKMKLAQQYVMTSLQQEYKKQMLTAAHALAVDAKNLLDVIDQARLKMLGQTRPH
# Chain of JAK2 JH2 pseudokinase (human) (O60674 whole entry, looked up): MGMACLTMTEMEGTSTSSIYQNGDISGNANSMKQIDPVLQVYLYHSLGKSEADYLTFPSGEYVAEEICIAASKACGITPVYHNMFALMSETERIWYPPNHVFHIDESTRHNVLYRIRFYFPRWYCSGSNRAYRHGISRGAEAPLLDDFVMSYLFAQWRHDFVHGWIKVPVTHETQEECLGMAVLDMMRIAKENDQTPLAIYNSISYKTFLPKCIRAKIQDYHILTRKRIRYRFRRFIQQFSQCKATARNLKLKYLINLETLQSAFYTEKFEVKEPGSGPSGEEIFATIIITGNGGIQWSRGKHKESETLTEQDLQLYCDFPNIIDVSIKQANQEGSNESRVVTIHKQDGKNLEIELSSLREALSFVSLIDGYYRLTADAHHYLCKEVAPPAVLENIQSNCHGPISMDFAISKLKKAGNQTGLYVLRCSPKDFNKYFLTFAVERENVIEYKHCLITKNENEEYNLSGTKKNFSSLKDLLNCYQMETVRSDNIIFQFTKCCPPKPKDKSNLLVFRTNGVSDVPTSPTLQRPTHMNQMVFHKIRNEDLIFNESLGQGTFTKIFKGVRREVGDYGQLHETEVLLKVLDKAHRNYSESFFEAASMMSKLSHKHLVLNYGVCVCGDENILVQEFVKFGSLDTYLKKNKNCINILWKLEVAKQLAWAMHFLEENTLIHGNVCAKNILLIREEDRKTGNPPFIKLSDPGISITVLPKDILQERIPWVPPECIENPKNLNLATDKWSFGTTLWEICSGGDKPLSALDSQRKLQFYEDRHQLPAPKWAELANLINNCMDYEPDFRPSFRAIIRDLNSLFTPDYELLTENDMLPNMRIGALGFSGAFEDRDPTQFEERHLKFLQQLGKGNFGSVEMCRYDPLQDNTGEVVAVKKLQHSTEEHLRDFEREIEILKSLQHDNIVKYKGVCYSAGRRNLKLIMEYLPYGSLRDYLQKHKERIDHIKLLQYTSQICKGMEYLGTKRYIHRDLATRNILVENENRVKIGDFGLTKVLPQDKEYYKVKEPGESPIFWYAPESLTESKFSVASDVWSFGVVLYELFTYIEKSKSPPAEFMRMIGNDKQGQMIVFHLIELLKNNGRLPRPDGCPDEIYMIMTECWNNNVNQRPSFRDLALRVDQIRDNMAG
# Chain of CLK3 (human) (P49761 whole entry, looked up): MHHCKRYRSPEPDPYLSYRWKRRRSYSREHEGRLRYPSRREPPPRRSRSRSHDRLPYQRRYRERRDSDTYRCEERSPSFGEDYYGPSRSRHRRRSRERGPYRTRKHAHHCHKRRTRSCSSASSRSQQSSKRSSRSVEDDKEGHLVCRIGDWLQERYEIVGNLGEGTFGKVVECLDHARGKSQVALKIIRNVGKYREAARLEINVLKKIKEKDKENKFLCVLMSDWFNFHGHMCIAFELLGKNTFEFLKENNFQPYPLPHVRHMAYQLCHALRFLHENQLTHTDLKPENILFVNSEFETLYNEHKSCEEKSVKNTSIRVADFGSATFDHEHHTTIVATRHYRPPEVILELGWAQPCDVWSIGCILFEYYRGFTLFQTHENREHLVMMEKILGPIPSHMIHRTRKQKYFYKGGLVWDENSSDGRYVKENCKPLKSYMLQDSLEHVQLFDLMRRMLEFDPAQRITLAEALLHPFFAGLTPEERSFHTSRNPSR
# Chain of PHKG1 (human) (Q16816 whole entry, looked up): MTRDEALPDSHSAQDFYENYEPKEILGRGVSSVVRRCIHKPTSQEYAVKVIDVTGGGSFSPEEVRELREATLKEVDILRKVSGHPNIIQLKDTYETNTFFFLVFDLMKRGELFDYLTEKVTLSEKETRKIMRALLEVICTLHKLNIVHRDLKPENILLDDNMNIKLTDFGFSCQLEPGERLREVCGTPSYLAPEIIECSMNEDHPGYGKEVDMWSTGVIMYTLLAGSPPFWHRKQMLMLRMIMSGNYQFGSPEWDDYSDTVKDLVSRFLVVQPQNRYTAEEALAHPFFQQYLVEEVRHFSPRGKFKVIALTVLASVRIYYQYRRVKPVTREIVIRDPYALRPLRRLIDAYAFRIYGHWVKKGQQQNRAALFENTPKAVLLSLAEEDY
smiles,measurement,setting,value
Oc1ccc(-c2nc(-c3ccc(F)cc3)c(-c3ccncc3)[nH]2)cc1,Kd,[1],> 10 µM
same,Kd,[2],> 10 µM
same,Kd,[3],> 10 µM
same,Kd,[4],> 10 µM
same,Kd,[5],> 10 µM
same,Kd,ABL2 (human),> 10 µM
same,Kd,BTK (human),> 10 µM
same,Kd,CAMK2A (human),> 10 µM
same,Kd,CAMK2D (human),> 10 µM
same,Kd,CAMKK1 (human),> 10 µM
same,Kd,CLK3 (human),> 10 µM
same,Kd,CSNK1G1 (human),> 10 µM
same,Kd,EPHA5 (human),> 10 µM
same,Kd,EPHA6 (human),> 10 µM
same,Kd,EPHB1 (human),> 10 µM
same,Kd,ERBB2 (human),> 10 µM
same,Kd,FER (human),> 10 µM
same,Kd,FGFR1 (human),> 10 µM
same,Kd,FGFR2 (human),> 10 µM
same,Kd,FGFR3 (human),> 10 µM
same,Kd,FGR (human),> 10 µM
same,Kd,FLT3 (human),> 10 µM
same,Kd,FYN (human),> 10 µM
same,Kd,HCK (human),> 10 µM
same,Kd,[6],> 10 µM
same,Kd,KDR (human),> 10 µM
same,Kd,LCK (human),> 10 µM
same,Kd,LIMK1 (human),> 10 µM
same,Kd,MAP3K5 (human),> 10 µM
same,Kd,NEK6 (human),> 10 µM
same,Kd,NEK9 (human),> 10 µM
same,Kd,PDGFRB (human),> 10 µM
same,Kd,PHKG1 (human),> 10 µM
same,Kd,PKMYT1 (human),> 10 µM
same,Kd,PRKAA1 (human),> 10 µM
same,Kd,PRKACA (human),> 10 µM
same,Kd,PTK2 (human),> 10 µM
same,Kd,RPS6KA3 KD1 (human),> 10 µM
same,Kd,SRC (human),> 10 µM
same,Kd,STK17B (human),> 10 µM
same,Kd,TEK (human),> 10 µM
same,Kd,TNK2 (human),> 10 µM
O=C1c2ccccc2-c2n[nH]c3cccc1c23,Kd,[1],> 10 µM
same,Kd,[2],> 10 µM
same,Kd,[3],> 10 µM
same,Kd,[4],> 10 µM
same,Kd,[5],> 10 µM
same,Kd,ABL2 (human),> 10 µM
same,Kd,BTK (human),> 10 µM
same,Kd,CAMK2A (human),> 10 µM
same,Kd,CAMK2D (human),> 10 µM
same,Kd,CAMKK1 (human),> 10 µM
same,Kd,CLK3 (human),> 10 µM
same,Kd,CSNK1G1 (human),3.7 µM
same,Kd,EPHA5 (human),> 10 µM
same,Kd,EPHA6 (human),> 10 µM
same,Kd,EPHB1 (human),> 10 µM
same,Kd,ERBB2 (human),> 10 µM
same,Kd,FER (human),> 10 µM
same,Kd,FGFR1 (human),> 10 µM
same,Kd,FGFR2 (human),1.9 µM
same,Kd,FGFR3 (human),> 10 µM
same,Kd,FGR (human),> 10 µM
same,Kd,FLT3 (human),> 10 µM
same,Kd,FYN (human),> 10 µM
same,Kd,HCK (human),> 10 µM
same,Kd,[6],> 10 µM
same,Kd,KDR (human),> 10 µM
same,Kd,LCK (human),> 10 µM
same,Kd,LIMK1 (human),> 10 µM
same,Kd,MAP3K5 (human),> 10 µM
same,Kd,NEK6 (human),> 10 µM
same,Kd,NEK9 (human),> 10 µM
same,Kd,PDGFRB (human),> 10 µM
same,Kd,PHKG1 (human),> 10 µM
same,Kd,PKMYT1 (human),> 10 µM
same,Kd,PRKAA1 (human),> 10 µM
same,Kd,PRKACA (human),> 10 µM
same,Kd,PTK2 (human),> 10 µM
same,Kd,RPS6KA3 KD1 (human),> 10 µM
same,Kd,SRC (human),> 10 µM
same,Kd,STK17B (human),> 10 µM
same,Kd,TEK (human),> 10 µM
same,Kd,TNK2 (human),> 10 µM
